For orientation: IC50 means the point on the concentration scale where inhibition reaches its midpoint.

Test [1] addresses SCD1 (Homo sapiens (Human), UniProt O00767). As to the kind of experiment: SCD1 13C-palmitic acid assay in A431 cells. Format: cell-based. Conditions: read-out: A431 cells 13C-PA IC50. Here is the method:
Human epithelial carcinoma A431 cells were seeded at 100,000 cells/well in complete growth medium (DMEM, Cellgro#10-013-CM, 4.5 g/L glucose, 10% FBS) in the presence of 0.05 mg/mL human insulin (Hannas Pharmaceutical Supply Co Inc, Humanlin 100 U/ml, 4 mg/ml) in 96-well tissue culture plate. 24 hr later, the cells were washed extensively with Assay Buffer (DMEM, Cellgro#10-013-CM, 4.5 g/L glucose, supplemented with 0.05 mg/mL Human Insulin and 0.1% Fatty Acid Free BSA). […] The cells were then returned to the tissue culture incubator (37° C. and 5% CO2) for 4 hrs. At the end of incubation, the cells were washed three times with 200 μL/well Hanks buffer (HBSS) and then stored at −20° C. until extraction.
For fatty acid extraction, after thawing out the plates, 40 μL of 1N KOH (containing 5 μM of internal standard 7,7,8,8-D4 palmitate) was added to each well and cell plates were incubated at 37° C. for 30 minutes. […] Acetonitrile (100 μL) was then added to extract fatty acids, followed by centrifugation at 3000 rpm for 10 minutes. 75 μL of extract was then transferred to a new glass vial in a 96-well cluster plate. 5 μL was injected for LC/MS analysis for detection of ^13C-palmitic acid and ^13C-palmitoleic acid. Formation of product ^13C-palmitoleic acid was determined as an index of SCD1 activity.
LC/MS analysis was performed as following. An Agilent 1100 Liquid Chromatographic System (Palo Alto, Calif.) consisting of a binary pump, a degasser and an autosampler was used. Separation of free fatty acids was performed on a Zorbax SB-C8 column (2.1×50 mm, particle size=3.5 μm). An isocratic elution was carried out with 10 mM triethylamine acetate in water: acetonitrile (3:7) at a flow rate of 0.3 mL/min. The column temperature was set at 30° C. and the sample injection volume was 5 μL. The LC run cycle was 4 min. A Micromass triple-quadrupole Quattro Micro mass […] (Waters, Beverly, Mass.) was interfaced with the LC system through a Z-spray electrospray ion source and was operated in the negative ion mode. Nitrogen was used as nebulizing gas, desolvation gas and cone curtain gas and argon was chosen as collision gas. The triple quadrupole MS source parameters were set as follows: capillary voltage, 3200V; cone voltage, 25V; exctractor 2V; source temperature, 120° C.; desolvation temperature, 300° C.; cone gas flow, 50 L/h; and desolvation gas flow, 700 L/h. […] MassLynx software version 4.0 was used for system control and data processing. The signal of U-^13C-palmitoleic acid was normalized to an internal standard.

For test [2], the target named is SCD1 (Rattus norvegicus (Rat), UniProt P07308). As to the kind of experiment: SCD1 enzymatic assay in rat liver microsomes (RLM). Conditions: rat liver microsomes; for % Inh.@ 1 μM / inhibition at 1 µM: 1 μM test compound; for inhibition at 1 µM: read-out: % Inh.@ 1 μM. Format: biochemical. As to the method:
Step 1: Preparation of Rat Liver Microsome (RLM):
Sprague Dawley rats from Charles River (200-225 g) underwent 2-cycle of fast-re-feeding (24-hour fast followed by 24-hour feeding with fat-free high carbohydrate diet, Reseach Diet, D00042802). The livers were removed and homogenized 1:4 (w/v) with pre-chilled, homogenizing buffer (10 mM Tris-HCl, 0.25 M sucrose, 1 mM EDTA, pH 7.4, supplemented with protease inhibitor cocktail). The homogenate was spun at 12,000×g for 15 min at 4° C. The supernatant was then re-centrifuged at 100,000×g for 60 min at 4° C. The pellet was re-suspended in 2 ml pre-chilled […] potassium phosphate buffer, pH 7.2, 10 mM EDTA at a concentration of 20 mg/ml. The resulting rat liver microsome (RLM) preparation was stored at −80° C.
Step 2: SCD1 Enzymatic Assay in RLM:
The SCD1 enzymatic assay was done in a volume of 50 μL using 10 μg of RLM (prepared as described above) in a 96-well polypropylene plate (enzyme reaction buffer contains 0.1 M K-Phosphate Buffer, 10 mM ATP, 6 mM MgCl2. 1 mM CoA, 1 mM β-NADH, 1.6 mM L-glutathione, 20 μM Stearoyl-CoA). Stearoyl-[9,10-^3H]-CoA (ARC-0390, 1 mCi/mL, 60 Ci/mmol,) was added at a final concentration of 2 μCi/mL. Test compound was then added to the reaction mixture at the selected concentration. After incubation at room temperature for 2 hours, 5 μL 1 N HCl was added to stop the reaction, followed by addition of 25 μL of 10% charcoal. The reaction mixture was then transferred to 96-well Multiscreen plate (Millipore, Cat#MSFCN6B50). […] The measured cpm values were fitted with Sigmoidal dose-response curve fit with Graphpad Prism.
In general terms: Liver microsomes are a subcellular fraction often used to study metabolism.

Values joined by “and” are separate entries in the source; they are usually repeats but may differ in a detail not shown here. Equal entries are not always repeated.

SCD1 (Homo sapiens (Human), UniProt O00767), sequence (O00767 whole entry): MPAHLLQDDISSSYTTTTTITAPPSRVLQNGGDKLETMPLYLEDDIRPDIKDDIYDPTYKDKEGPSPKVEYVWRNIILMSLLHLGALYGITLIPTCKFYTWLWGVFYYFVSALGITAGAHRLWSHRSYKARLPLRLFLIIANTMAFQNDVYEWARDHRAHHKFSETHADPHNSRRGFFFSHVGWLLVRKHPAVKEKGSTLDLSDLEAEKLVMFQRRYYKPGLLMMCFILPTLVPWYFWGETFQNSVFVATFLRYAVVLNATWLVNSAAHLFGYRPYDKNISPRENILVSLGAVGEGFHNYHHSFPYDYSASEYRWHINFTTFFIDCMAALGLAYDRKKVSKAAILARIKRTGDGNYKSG
SCD1 (Rattus norvegicus (Rat), UniProt P07308), sequence (P07308 whole entry): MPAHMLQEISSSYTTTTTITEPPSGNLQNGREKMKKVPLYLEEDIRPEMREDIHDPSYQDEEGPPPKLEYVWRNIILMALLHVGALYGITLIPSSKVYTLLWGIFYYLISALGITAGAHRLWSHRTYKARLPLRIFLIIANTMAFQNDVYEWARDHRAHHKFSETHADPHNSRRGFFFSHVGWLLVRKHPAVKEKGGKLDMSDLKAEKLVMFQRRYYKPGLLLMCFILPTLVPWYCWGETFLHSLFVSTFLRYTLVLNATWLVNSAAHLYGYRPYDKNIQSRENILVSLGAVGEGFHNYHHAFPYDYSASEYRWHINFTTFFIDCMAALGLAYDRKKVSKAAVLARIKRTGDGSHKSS

In the case of `Cc1ccc(-c2ccc(N3CCC(c4noc5ccc(F)cc45)CC3)nn2)cn1` [compound 24, 5-fluoro-3-(1-(6-(6-methylpyridin-3-yl)pyridazin-3-yl)piperidin-4-yl)benzo[d]isoxazote], the concentration for half-maximal inhibition (IC50) at SCD1 [1] was 9 nM and 6 nM. In addition, at SCD1 [2], the “% Inh.@ 1 μM” value was 94%; the inhibition at 1 µM came out at 98%; the half-maximal inhibitory concentration (IC50) was 11 nM and 4 nM.

In the case of `Cc1cc(-c2ccc(N3CCC(c4noc5ccc(F)cc45)CC3)nn2)ccn1` [compound 25, 5-fluoro-3-(1-(6-(2-methylpyridin-4-yl)pyridazin-3-yl)piperidin-4-yl)benzo[d]isoxazole], the IC50 on SCD1 [1] was found to be 17 nM. Besides, at SCD1 [2], the inhibition at 1 µM amounted to 62% and the IC50 was determined as 171 nM.

For `Fc1ccc2onc(C3CCN(c4ccc(-c5cn[nH]c5)nn4)CC3)c2c1` [compound 26, 3-(1-(6-(1H-pyrazol-4-yl)pyridazin-3-yl)piperidin-4-yl)-5-fluorobenzo[d]isoxazole], at SCD1 [1], the IC50 turned out to be 112 nM. On SCD1 [2], the inhibition at 1 µM is 86% and the midpoint of inhibition, the IC50, lay at 111 nM.

For `Cc1csc(-c2ccc(N3CCC(c4noc5ccc(F)cc45)CC3)nn2)c1` [compound 27, 5-fluoro-3-(1-(6-(4-methylthiophen-2-yl)pyridazin-3-yl)piperidin-4-yl)benzo[d]isoxazole], the IC50 at SCD1 [1] was 4 nM and 3 nM. For the same compound, at SCD1 [2], the “% Inh.@ 1 μM” value worked out at 55%; the inhibition at 1 µM was found to be 75%; the 50% inhibitory concentration (IC50) was 114 nM and 122 nM.

For the compound `Cc1cnc(-c2ccc(N3CCC(c4noc5ccc(F)cc45)CC3)nn2)s1` [compound 28, 5-fluoro-3-(1-(6-(5-methylthiazol-2-yl)pyridazin-3-yl)piperidin-4-yl)benzo[d]isoxazole], on SCD1 [1], the half-maximal inhibitory concentration (IC50) is 9 nM and 16 nM. At SCD1 [2], the inhibition at 1 µM worked out at 94% and the midpoint of inhibition, the IC50, lay at 9 nM.

Take `COc1ncc(-c2ccc(N3CCC(c4noc5ccc(F)cc45)CC3)nn2)cn1` [compound 34, 5-fluoro-3-(1-(6-(2-methoxypyrimidin-5-yl)pyridazin-3-yl)piperidin-4-yl)benzo[d]isoxazole]: the concentration for half-maximal inhibition (IC50) on SCD1 [1] worked out at 17 nM; at SCD1 [2] it was 95 nM. For the same compound, the inhibition at 1 µM at SCD1 [2] is 75%.

As for `OCc1ccc(-c2ccc(N3CCC(c4noc5ccc(F)cc45)CC3)nn2)cn1` [compound 35, (5-(6-(4-(5-fluorobenzo[d]isoxazol-3-yl)piperidin-1-yl)pyridazin-3-yl)pyridin-2-yl)methanol], the 50% inhibitory concentration (IC50) was 2 nM at SCD1 [1] and 8 nM at SCD1 [2]. The inhibition at 1 µM at SCD1 [2] was determined as 99%.

On to `COc1ncc(-c2ccc(N3CCC(N4CCc5ccc(F)cc54)CC3)nn2)cn1` [compound 38, 6-fluoro-1-(1-(6-(2-methoxypyrimidin-5-yl)pyridazin-3-yl)piperidin-4-yl)indoline], for which the 50% inhibitory concentration (IC50) on SCD1 [1] was found to be 34 nM. For the same compound, on SCD1 [2], the inhibition at 1 µM was determined as 97% and the half-inhibitory concentration (IC50) came out at 11 nM.

As for `Cn1cc(-c2ccc(N3CCC(n4ncc5ccccc54)CC3)nn2)cn1` [compound 40, 1-(1-(6-(1-methyl-1H-pyrazol-4-yl)pyridazin-3-yl)piperidin-4-yl)-1H-indazole], the IC50 at SCD1 [1] worked out at 45 nM. Also, at SCD1 [2], the inhibition at 1 µM was found to be 92% and the midpoint of inhibition, the IC50, lay at 92 nM.

Consider `CC(=O)Nc1ccc(-c2ccc(N3CCC(N4CCc5ccc(F)cc54)CC3)nn2)cn1` [compound 45, N-(5-(6-(4-(6-fluoroindolin-1-yl)piperidin-1-yl)pyridazin-3-yl)pyridin-2-yl)acetamide], for which the half-inhibitory concentration (IC50) was 6 nM on SCD1 [1] and 15 nM on SCD1 [2]. At SCD1 [2], the inhibition at 1 µM was found to be 98%.

For the compound `CCOC(=O)Cn1cc(-c2ccc(N3CCC(N4CCc5ccc(F)cc54)CC3)nn2)cn1` [compound 50, ethyl 2-(4-(6-(4-(6-fluoroindolin-1-yl)piperidin-1-yl)pyridazin-3-yl)-1H-pyrazol-1-yl)acetate], on SCD1 [1], the IC50 was 44 nM. Further, on SCD1 [2], the inhibition at 1 µM is 93% and the half-inhibitory concentration (IC50) was determined as 31 nM.

Values taken from patent publication US9102669B2, “Substituted piperidinyl-pyridazinyl derivatives useful as SCD 1 inhibitors” (Janssen Pharmaceutica NV, priority 2011, dated 2015).
